The text below walks through data of ChEMBL document CHEMBL1128259, “Ketomethylene and (cyanomethylene)amino pseudopeptide analogues of the C-terminal hexapeptide of neurotensin” (J Med Chem, 1995).

Molecules are shown by their SMILES. Peptide text beside a SMILES is read from it. * marks the point of attachment. X2 = CC[C@@H](C)[C@H](CN[C@@H](Cc1ccccc1)C(=O)O)N*

Assay [1] addresses Neurotensin receptor type 1 (Rattus norvegicus) (UniProt P20789). The assay can be described thus: Relative potency at neurotensin receptor compared to neurotensin (NT8-13).
Assay [2] concerns the target T1, Neurotensin receptor type 1 (Rattus norvegicus, UniProt P20789). The assay can be described thus: IC50 was measured as binding to rat cortex membranes using [3H]- NT(neurotensin) as tracer.
Assay [3] has as its target T1, Neurotensin receptor type 1. The assay can be described thus: IC50 was measured as binding to rat cortex membranes using [3H]- NT (neurotensin) as tracer.

T1 sequence (P20789 whole entry): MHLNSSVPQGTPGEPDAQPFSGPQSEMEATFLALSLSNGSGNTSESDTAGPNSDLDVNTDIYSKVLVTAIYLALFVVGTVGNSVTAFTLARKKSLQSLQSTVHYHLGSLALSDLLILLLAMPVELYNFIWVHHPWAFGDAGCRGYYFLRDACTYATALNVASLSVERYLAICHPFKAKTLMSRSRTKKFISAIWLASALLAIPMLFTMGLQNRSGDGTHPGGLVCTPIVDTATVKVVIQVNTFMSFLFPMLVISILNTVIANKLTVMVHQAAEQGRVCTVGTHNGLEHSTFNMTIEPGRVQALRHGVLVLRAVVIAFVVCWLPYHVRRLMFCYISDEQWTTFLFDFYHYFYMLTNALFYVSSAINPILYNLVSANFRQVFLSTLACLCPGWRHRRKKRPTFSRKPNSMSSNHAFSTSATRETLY
Neurotensin receptor type 1 (Rattus norvegicus), sequence (P20789 whole entry): as above

In the case of `CC[C@H](C)[C@H](NC(=O)[C@H](Cc1ccc(O)cc1)NC(=O)[C@@H]1CCCN1C(=O)[C@H](CCCN=C(N)N)NC(=O)[C@@H](N)CCCN=C(N)N)C(=O)C[C@H](Cc1ccccc1)C(=O)O` (mixture of isomers) [listing 1 of 2 here], the Relative potency in assay [1] stood at 1.1. One may read the IC50 as the midpoint of a concentration-inhibition curve. A high value points to a need for much substance. Regarding `CC[C@H](C)[C@H](NC(=O)[C@H](Cc1ccc(O)cc1)NC(=O)[C@@H]1CCCN1C(=O)[C@H](CCCN=C(N)N)NC(=O)[C@@H](N)CCCN=C(N)N)C(=O)C[C@H](Cc1ccccc1)C(=O)O` (stereo in doubt; 13c) [listing 1 of 2 here], in assay [2], the IC50 was 1500 nM. `CC[C@H](C)[C@H](NC(=O)[C@H](Cc1ccc(O)cc1)NC(=O)[C@@H]1CCCN1C(=O)[C@H](CCCN=C(N)N)NC(=O)[C@@H](N)CCCN=C(N)N)C(=O)C[C@H](Cc1ccccc1)C(=O)O` (stereo in doubt; 13b) [listing 1 of 2 here] returned a Relative potency in assay [1] of 0.8.

Consider `CC(C)C[C@H](NC(=O)[C@@H](Cc1ccccc1)NC(=O)[C@H](Cc1ccc(O)cc1)NC(=O)[C@@H]1CCCN1C(=O)[C@H](CCCN=C(N)N)NC(=O)[C@@H](N)CCCN=C(N)N)C(=O)O`, for which the Relative potency in assay [1] is 105. For the molecule `CC[C@H](C)[C@H](NC(=O)[C@H](Cc1ccc(O)cc1)NC(=O)[C@@H]1CCCN1C(=O)[C@H](CCCN=C(N)N)NC(=O)[C@@H](N)CCCN=C(N)N)C(=O)C[C@H](Cc1ccccc1)C(=O)O` (stereo in doubt; 13a) [listing 1 of 2 here], the Relative potency in assay [1] was determined as 8.3.

In assay [1], `CC[C@@H](C)[C@@H](NC(=O)[C@H](Cc1ccc(O)cc1)NC(=O)[C@@H]1CCCN1C(=O)[C@H](CCCN=C(N)N)NC(=O)[C@@H](N)CCCN=C(N)N)C(=O)N[C@@H](Cc1ccccc1)C(=O)O` came in with a Relative potency of 200.

As to `CC[C@H](C)[C@H](NC(=O)[C@H](Cc1ccc(O)cc1)NC(=O)[C@@H]1CCCN1C(=O)[C@H](CCCN=C(N)N)NC(=O)[C@@H](N)CCCN=C(N)N)C(=O)C[C@H](Cc1ccccc1)C(=O)O` (mixture of isomers) [listing 2 of 2 here], the IC50 in assay [2] was determined as 900 nM.

Regarding `CC[C@H](C)[C@H](NC(=O)[C@H](Cc1ccc(O)cc1)NC(=O)[C@@H]1CCCN1C(=O)[C@H](CCCN=C(N)N)NC(=O)[C@@H](N)CCCN=C(N)N)C(=O)C[C@H](Cc1ccccc1)C(=O)O` (stereo in doubt; 13a) [listing 2 of 2 here], the half-inhibitory concentration (IC50) in assay [2] was found to be 120 nM. On to `CC[C@@H](C)[C@H](CN[C@@H](Cc1ccccc1)C(=O)O)NC(=O)[C@H](Cc1ccc(O)cc1)NC(=O)[C@@H]1CCCN1C(=O)[C@H](CCCN=C(N)N)NC(=O)[C@@H](N)CCCN=C(N)N` (H-RRPY-X2), for which the Relative potency in assay [1] came out at 0.1.

With `CC[C@H](C)[C@H](NC(=O)[C@H](Cc1ccc(O)cc1)NC(=O)[C@@H]1CCCN1C(=O)[C@H](CCCN=C(N)N)NC(=O)[C@@H](N)CCCN=C(N)N)C(=O)C[C@H](Cc1ccccc1)C(=O)O` (stereo in doubt; 13b) [listing 2 of 2 here], the IC50 in assay [2] worked out at 1200 nM. As for `CC(C)C[C@H](NC(=O)[C@H](Cc1ccccc1)NC(=O)[C@H](Cc1ccc(O)cc1)NC(=O)[C@@H]1CCCN1C(=O)[C@H](CCCN=C(N)N)NC(=O)[C@@H](N)CCCN=C(N)N)C(=O)O`, in assay [2], the IC50 is 8 nM. This IC50 is about 150-fold lower than that of the molecule before. `CC[C@@H](C)[C@@H](NC[C@H](Cc1ccc(O)cc1)NC(=O)[C@@H]1CCCN1C(=O)[C@H](CCCN=C(N)N)NC(=O)[C@@H](N)CCCN=C(N)N)C(=O)N[C@@H](CC(C)C)C(=O)O` returned a Relative potency in assay [1] of 0.1. Regarding `CC[C@H](C)[C@H](NC(=O)[C@H](Cc1ccc(O)cc1)NC(=O)[C@@H]1CCCN1C(=O)[C@H](CCCN=C(N)N)NC(=O)[C@@H](N)CCCN=C(N)N)C(=O)C[C@H](Cc1ccccc1)C(=O)O` (stereo in doubt; 13c) [listing 2 of 2 here], the Relative potency in assay [1] stood at 0.6.

`CC(C)C[C@H](NC(=O)[C@H](CC(=O)[C@H](Cc1ccc(O)cc1)NC(=O)[C@@H]1CCCN1C(=O)[C@H](CCCNC(=N)N)NC(=O)[C@@H](N)CCCNC(=N)N)Cc1ccccc1)C(=O)O`: the half-maximal inhibitory concentration (IC50) in assay [2] was determined as 1200 nM. For the same molecule, in assay [1], the Relative potency came to 0.8. On to `CC[C@H](C)[C@H](NC(C#N)[C@H](Cc1ccc(O)cc1)NC(=O)C1CCCN1C(=O)[C@H](CCCN=C(N)N)NC(=O)[C@@H](N)CCCN=C(N)N)C(=O)N[C@@H](CC(C)C)C(=O)O` (some centres undefined), for which, in assay [3], the IC50 came to 10000 nM. In addition, the Relative potency in assay [1] worked out at 0.1. Turning to `CC[C@@H](C)[C@H](CN[C@@H](Cc1ccccc1)C(=O)O)NC(=O)[C@H](Cc1ccc(O)cc1)NC(=O)[C@@H]1CCCN1C(=O)[C@H](CCCNC(=N)N)NC(=O)[C@@H](N)CCCNC(=N)N` (H-RRPY-X2), the IC50 in assay [2] is 8000 nM. `CC[C@H](C)[C@H](NC[C@H](Cc1ccc(O)cc1)NC(=O)[C@@H]1CCCN1C(=O)[C@H](CCCN=C(N)N)NC(=O)[C@@H](N)CCCN=C(N)N)C(=O)N[C@@H](CC(C)C)C(=O)O` came in with an IC50 in assay [2] of 6310 nM. In assay [3], `CC[C@H](C)[C@H](NC(C#N)[C@@H](Cc1ccc(O)cc1)NC(=O)[C@@H]1CCCN1C(=O)[C@H](CCCN=C(N)N)NC(=O)[C@@H](N)CCCN=C(N)N)C(=O)N[C@@H](CC(C)C)C(=O)O` (some centres undefined) returned an IC50 of 180 nM. In assay [1], this molecule displayed a Relative potency of 5.5. The molecule `CC(C)C[C@H](NC(=O)C(CC(=O)[C@H](Cc1ccc(O)cc1)NC(=O)[C@@H]1CCCN1C(=O)[C@H](CCCNC(=N)N)NC(=O)[C@@H](N)CCCNC(=N)N)Cc1ccccc1)C(=O)O` (single isomer, unassigned) came in with an IC50 in assay [2] of 15 nM. This molecule gave a Relative potency in assay [1] of 66.6.

`CC[C@H](C)[C@H](NC(=O)[C@H](Cc1ccc(O)cc1)NC(=O)[C@@H]1CCCN1C(=O)[C@H](CCCNC(=N)N)NC(=O)[C@@H](N)CCCNC(=N)N)C(=O)N[C@@H](Cc1ccccc1)C(=O)O` showed an IC50 in assay [2] of 5 nM.
